Our source for the IC50 and CC50 values is article PMC9554980, “Antimalarial potential of compounds isolated from Mammea siamensis T. Anders. flowers: in vitro and molecular docking studies” (BMC Complementary Medicine and Therapies, 2022).

What all share (assay type): cell-based
For series [1], the system named is chloroquine-resistant P. falciparum (K1) strain. The series can be described thus: In vitro antimalarial activity, pLDH assay. As to conditions: Plasmodium falciparum. The procedure:
P. falciparum was cultured according to the method of Trager and Jensen with some modifications. The parasites were cultured in noninfected human red blood cells (2% hematocrit) using RPMI 1640 medium that was supplemented with 0.5% Albumax II, 10 µg/ml hypoxanthine, 2.5 µg/ml gentamicin, 4.8 mg/ml HEPES and buffered with 2 mg/ml sodium bicarbonate as described previously in our previous study. All the chemicals and reagents used for culturing were purchased from Sigma–Aldrich, New Delhi, India and Gibco, Waltham, MA USA. The culture was maintained at 37 °C in a CO2 incubator. The culture medium was changed, and Giemsa-stained slides were prepared daily to monitor parasitemia.
The in vitro antimalarial activity of the isolated compounds was assessed on cultured P. falciparum using the Plasmodium lactate dehydrogenase (pLDH) assay described by Makler with some modifications. Briefly, the compounds were individually dissolved in DMSO to obtain a stock solution of 1 mM, and the solution was then diluted to a final working concentration of 0.78–100 µM. […] Parasitized red blood cells (2% hematocrit, 2% parasitemia) were aliquoted into a 96-well cell culture plate, and then the infected red cells were exposed. The tested compound was added to 96-well plates and incubated at 37 °C for 72 h in a CO2 incubator. At the end of incubation, the plates were subjected to three freeze/thaw cycles (frozen at -20 °C and thawed at 37 °C) for complete hemolysis. The lysed cells were transferred to a new 96-well plate that contained a mixture of 100 µl of Malstat reagent and 20 µl of nitroblue tetrazolium/phenazine ethosulfate solution (Calbiochem®, Sigma–Aldrich, New Delhi, India) and were incubated for 1 h in the dark. The experiments were performed in triplicate. These solutions were used to determine the activity of the lactate dehydrogenase (LDH) enzyme in the cultures. When LDH was present, a purple product was formed, and the optical density was measured using a microplate reader at a wavelength of 650 nm. The concentrations at which 50% inhibition of parasite growth (IC50) was calculated using a nonlinear regression curve contained in GraphPad PRISM version 6 (GraphPad Software, Inc., La Jolla, CA, USA).

The nature of series [2]: In vitro cytotoxicity, MTT assay, HepG2 cells. The following applies: human, 5 to 80 µM. As for the experimental part: (§1) The toxicity of isolated compounds was assessed by a 3-(4,5-dimethythiazol2-yl)-2,5-diphenyl tetrazolium bromide (MTT) assay according to a previous method. Briefly, Vero cells, a normal mammalian cell line or HepG2 human hepatoma cell line, were seeded into 96-well plates (10^4 cell/ml) and incubated for 24 h at 37 °C with 5% CO2. Cells were then treated with various concentrations of the tested compounds ranging from 5 to 80 µM, and the final concentration of DMSO in the tested dilutions was not higher than 1% for 48 h at 37 °C with 5% CO2. Subsequently, MTT solution was added to each well, and the plate was incubated for 2 h in a CO2 incubator. The medium was then removed, and 100 µl of DMSO was added to each well. The negative control was performed using growth medium alone instead of the tested compounds, while doxorubicin (Sigma–Aldrich, New Delhi, India) was used as the positive toxic control. The assay was performed in triplicates. Finally, the optical density was determined using a microplate reader at a wavelength of 590 nm. The 50% cytotoxic concentration (CC50) was calculated using a nonlinear regression curve contained in GraphPad PRISM version 6 (GraphPad Software, Inc., La Jolla, CA, USA).
A general note: Tetrazolium assays rely on reduction of a dye to a coloured formazan, in cell work by metabolically active cells.

The nature of series [3]: In vitro cytotoxicity, MTT assay, Vero cells. As to conditions: African green monkey, 5 to 80 µM, read-out: CC50 Vero cell. The procedure:
as §1

Setting [4] is: P. falciparum K1, pLDH assay, 72 h, mean ± S.D. of three determinations, read-out: IC50 K1.

For orientation: IC50 means the concentration at which inhibition is half-maximal. As a reminder, the CC50 is the concentration that lowers cell viability or growth by half.

Like-named read-outs stand apart in the source and are kept apart here.

Regarding `C[C@H]1[C@H](OC(=O)CCC(=O)O)O[C@@H]2O[C@@]3(C)CC[C@H]4[C@H](C)CC[C@@H]1[C@@]24OO3` [Artesunate, reference compound], the IC50 in series [1] (P. falciparum K1, pLDH assay, 72 h, positive control, IC50 unit expressed in nM (footnote), read-out: IC50 K1 (positive control)) stood at 0.53 ± 0.04 nM.
`C=C(C)[C@@H]1CC[C@]2(C)CC[C@]3(C)[C@H](CC[C@@H]4[C@@]5(C)CC[C@H](O)C(C)(C)[C@@H]5CC[C@]43C)[C@@H]12` [Compound 1, lupeol]: in series [1] (setting [4]), the IC50 was determined as 18800 ± 3450 nM. Further, the CC50 at 48 h in series [2] (HepG2 cells) was 29.3 ± 1.47 µM; in series [3] (Vero cells), greater than 80 µM.
In the same order, the values of `COc1ccc2c(=O)c3cccc(O)c3oc2c1O` [Compound 2, 4,5-dihydroxy-3-methoxyxanthone] are 21000 ± 3560 nM, greater than 80 µM and greater than 80 µM.
Turning to `O=c1c2ccccc2oc2c(O)cccc12` [Compound 3, 4-hydroxyxanthone], the IC50 in series [1] (K1, 72 h, read-out: IC50 K1) was 68600 ± 2540 nM. Moreover, the CC50 at 48 h in series [2] came out at 46.1 ± 1.66 µM; in series [3], 48.1 ± 1.68 µM.
Turning to `O=c1c2cc(O)ccc2oc2cccc(O)c12` [Compound 4, 1,7-dihydroxyxanthone], in series [1] (K1, 72 h, read-out: IC50 K1), the IC50 stood at 41700 ± 2230 nM. Besides, the CC50 at 48 h in series [2] (HepG2 cells) was found to be 13.3 ± 1.12 µM; in series [3] (Vero cells), 7.9 ± 0.9 µM.
As for `CC(C)CC(=O)c1c2c(c3oc(=O)cc(-c4ccccc4)c3c1O)C=CC(C)(C)O2` [Compound 6, mammea A/AA cyclo D], the IC50 in series [1] (setting [4]) was found to be 45600 ± 3120 nM. Also, the CC50 at 48 h in series [2] (HepG2 cells) and in series [3] (Vero cells) was greater than 80 µM each time.
Turning to `CC(C)CC(=O)c1c2c(c3oc(=O)cc(-c4ccccc4)c3c1O)C[C@H](C(C)(C)O)O2` [Compound 7, mammea A/AA cyclo F], the IC50 in series [1] (setting [4]) was determined as 49890 ± 420 nM. Moreover, the 50% cytotoxic concentration (CC50) at 48 h in series [2] (HepG2 cells) and in series [3] (Vero cells) was greater than 80 µM throughout.
For `O=c1c2ccc(O)cc2oc2cccc(O)c12` [Compound 8, 1,6-dihydroxyxanthone], the IC50 in series [1] (setting [4]) worked out at 47900 ± 5160 nM. Further, the CC50 at 48 h in series [2] and in series [3] was greater than 80 µM each time.
Take `COc1cc2c(=O)c3c(O)cccc3oc2c(OC)c1OC` [Compound 9, 1-hydroxy-5,6,7-trimethoxyxanthone]: in series [1] (setting [4]), the IC50 turned out to be 9570 ± 1590 nM. The CC50 at 48 h in series [2] (HepG2 cells) and in series [3] (Vero cells) was greater than 80 µM in each case.
Take `O=c1c2cccc(O)c2oc2c(O)c(O)ccc12` [Compound 10, 3,4,5-trihydroxyxanthone]: in series [1] (setting [4]), the IC50 came to 15500 ± 2630 nM. Further, the CC50 at 48 h in series [2] (HepG2 cells) and in series [3] (Vero cells) was greater than 80 µM each time.
Consider `COc1cccc2oc3c(O)cccc3c(=O)c12` [Compound 11, 5-hydroxy-1-methoxyxanthone], for which the IC50 in series [1] (setting [4]) turned out to be 29300 ± 4440 nM. Moreover, the CC50 at 48 h in series [2] (HepG2 cells) and in series [3] (Vero cells) was greater than 80 µM throughout.
Take `O=c1c2ccccc2oc2ccc(O)cc12` [Compound 12, 2-hydroxyxanthone]: in series [1] (K1, 72 h, read-out: IC50 K1), the IC50 came out at 75000 ± 880 nM. Also, the CC50 at 48 h in series [2] and in series [3] was greater than 80 µM throughout.
Consider `COc1ccc2c(=O)c3c(O)cccc3oc2c1O` [Compound 13, 1,5-dihydroxy-6-methoxyxanthone], for which the IC50 in series [1] (setting [4]) amounted to 22300 ± 1670 nM. For the same molecule, the CC50 at 48 h in series [2] (HepG2 cells) is 30.5 ± 1.49 µM; in series [3] (Vero cells), greater than 80 µM.
For `COc1cccc2c1C(=O)c1c(O)c3c(c(O)c1C2=O)C[C@@](O)(C(=O)CO)C[C@@H]3O[C@H]1C[C@H](N)[C@H](O)[C@H](C)O1` [Doxorubicin, reference compound], the CC50 at 48 h in series [2] (HepG2 cells) is 1.11 ± 0.05 µM; in series [3] (Vero cells) it was 1.46 ± 0.16 µM.
